Values joined by “and” are separate entries in the source; they are usually repeats but may differ in a detail not shown here. Equal entries are not always repeated. Toxic doses and inconclusive results are not listed. Rule as the data show it: active = T/C of 150% or more; inactive = T/C below 125%.
System: L1210 leukemia ip in BDF1 mice, survival T/C
Experiment: NCI In Vivo Anticancer Drug Screen. Data for tumor model L1210 Leukemia (intraperitoneal) in B6D2F1 (BDF1) mice
Conditions: endpoint: mean survival time, higher = longer survival
Procedure, shortened: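 Tumor cells were implanted, animals were treated, and survival was followed. The result divides the treated measurement by the vehicle-control measurement.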

[1] = dose: 100.0 mg/kg/injection, schedule: Q01DX001 (ip), vehicle: saline
[2] = dose: 100.0 mg/kg/injection, schedule: Q04DX003 (ip), vehicle: Klucel (hydroxypropylcellulose) (HPC)
[3] = dose: 200.0 mg/kg/injection, schedule: Q04DX003 (ip), vehicle: Klucel (hydroxypropylcellulose) (HPC)
[4] = dose: 400.0 mg/kg/injection, schedule: Q04DX003 (ip), vehicle: Klucel (hydroxypropylcellulose) (HPC)
[5] = dose: 100.0 mg/kg/injection, schedule: Q01DX009 (ip), vehicle: saline with Tween-80
[6] = dose: 200.0 mg/kg/injection, schedule: Q01DX009 (ip), vehicle: saline with Tween-80
[7] = dose: 200.0 mg/kg/injection, schedule: Q01DX001 (ip), vehicle: saline
[8] = dose: 400.0 mg/kg/injection, schedule: Q01DX001 (ip), vehicle: saline
[9] = dose: 100.0 mg/kg/injection, schedule: Q01DX009 (ip), vehicle: Klucel (hydroxypropylcellulose) (HPC)
[10] = dose: 200.0 mg/kg/injection, schedule: Q01DX009 (ip), vehicle: Klucel (hydroxypropylcellulose) (HPC)

Measured: T/C

C=CC(=C)OC
inactive: dose: 25.0 mg/kg/injection, schedule: Q01DX005 (ip), vehicle: saline 117 % of control | dose: 50.0 mg/kg/injection, schedule: Q01DX005 (ip), vehicle: saline 113 % of control | dose: 100.0 mg/kg/injection, schedule: Q01DX005 (ip), vehicle: saline 111 % of control | dose: 200.0 mg/kg/injection, schedule: Q01DX005 (ip), vehicle: saline 107 % of control | dose: 400.0 mg/kg/injection, schedule: Q01DX005 (ip), vehicle: saline 111 % of control

CCOC(=O)/C(C#N)=C(\C)CC(C)C
inactive: dose: 5.0 mg/kg/injection, schedule: Q01DX001 (ip), vehicle: saline 101 % of control | dose: 10.0 mg/kg/injection, schedule: Q01DX001 (ip), vehicle: saline 95 % of control | dose: 20.0 mg/kg/injection, schedule: Q01DX001 (ip), vehicle: saline 95 % of control | dose: 40.0 mg/kg/injection, schedule: Q01DX001 (ip), vehicle: saline 98 % of control | dose: 80.0 mg/kg/injection, schedule: Q01DX001 (ip), vehicle: saline 101 % of control | [1] 98 % of control

CC(C(Nc1ccc(C(=O)O)cc1)C(F)(F)C(F)(F)C(F)(F)F)[N+](=O)[O-] (centres undefined)
inactive: [2] 88 % of control | [3] 89 % of control | [4] 98 % of control

O=C(OCc1ccccc1)c1ccccc1
inactive: [5] 98 % of control | [6] 105 % of control | dose: 400.0 mg/kg/injection, schedule: Q01DX009 (ip), vehicle: saline with Tween-80 93 % of control

CC/C(=N/Nc1ccc([N+](=O)[O-])cc1[N+](=O)[O-])c1cccs1
inactive: dose: 100.0 mg/kg/injection, schedule: Q01DX001 (ip), vehicle: carboxymethylcellulose (CMC) 100 % of control | dose: 200.0 mg/kg/injection, schedule: Q01DX001 (ip), vehicle: carboxymethylcellulose (CMC) 97 % of control

CCOP(=O)(Cc1c(Cl)c(Cl)c(CP(=O)(OCC)OCC)c(Cl)c1Cl)OCC
inactive: [1] 107 % of control | [7] 98 % of control | [8] 98 % of control

CN(N)P(=S)(c1ccccc1)N(C)N
inactive: dose: 6.25 mg/kg/injection, schedule: Q01DX009 (ip), vehicle: Klucel (hydroxypropylcellulose) (HPC) 97 % of control | dose: 12.5 mg/kg/injection, schedule: Q01DX009 (ip), vehicle: Klucel (hydroxypropylcellulose) (HPC) 100 % of control | dose: 12.5 mg/kg/injection, schedule: Q04DX003 (ip), vehicle: Klucel (hydroxypropylcellulose) (HPC) 97 % of control | dose: 25.0 mg/kg/injection, schedule: Q01DX009 (ip), vehicle: Klucel (hydroxypropylcellulose) (HPC) 94 % of control | dose: 25.0 mg/kg/injection, schedule: Q04DX003 (ip), vehicle: Klucel (hydroxypropylcellulose) (HPC) 92 % of control

CN1CC(CO)C=C2c3cccc4[nH]cc(c34)CC21 (centres undefined)
inactive: dose: 25.0 mg/kg/injection, schedule: Q01DX009 (ip), vehicle: alcohol 100 % of control | dose: 25.0 mg/kg/injection, schedule: Q04DX003 (ip), vehicle: alcohol 98 % of control | dose: 50.0 mg/kg/injection, schedule: Q01DX009 (ip), vehicle: alcohol 118 % of control | dose: 50.0 mg/kg/injection, schedule: Q04DX003 (ip), vehicle: alcohol 103 % of control | dose: 100.0 mg/kg/injection, schedule: Q01DX009 (ip), vehicle: alcohol 123 % of control | dose: 100.0 mg/kg/injection, schedule: Q04DX003 (ip), vehicle: alcohol 101 % of control | dose: 200.0 mg/kg/injection, schedule: Q01DX009 (ip), vehicle: alcohol 107 % of control | dose: 200.0 mg/kg/injection, schedule: Q04DX003 (ip), vehicle: alcohol 98 % of control | dose: 400.0 mg/kg/injection, schedule: Q04DX003 (ip), vehicle: alcohol 109 % of control

CCN(CC)CCOc1ccc(/C=C(/C(=O)c2ccccc2)c2ccccc2)cc1
inactive: dose: 100.0 mg/kg/injection, schedule: Q04DX003 (sc), vehicle: olive oil, sesame oil, peanut oil 101 % of control | dose: 200.0 mg/kg/injection, schedule: Q04DX003 (sc), vehicle: olive oil, sesame oil, peanut oil 101 % of control | dose: 400.0 mg/kg/injection, schedule: Q04DX003 (sc), vehicle: olive oil, sesame oil, peanut oil 101 % of control

Oc1ccc(Cl)cc1/C=N/N1CCN(/N=C/c2cc(Cl)ccc2O)CC1
inactive: [1] 90 % of control | [7] 90 % of control | [8] 90 % of control

CCN(CC)c1ccc(C=Nc2cccc(C(F)(F)F)c2)cc1
inactive: [9] 105 % of control | [2] 92 % of control | [10] 94 % of control | [3] 94 % of control | [4] 97 % of control

COc1ccc(C(=O)CC2(O)C(=O)Nc3ccc(Br)cc32)cc1 (centres undefined)
inactive: dose: 100.0 mg/kg/injection, schedule: Q04DX002 (ip), vehicle: Klucel (hydroxypropylcellulose) (HPC) 92 % of control | dose: 200.0 mg/kg/injection, schedule: Q04DX002 (ip), vehicle: Klucel (hydroxypropylcellulose) (HPC) 89 % of control | dose: 400.0 mg/kg/injection, schedule: Q04DX002 (ip), vehicle: Klucel (hydroxypropylcellulose) (HPC) 92 % of control

Cc1cc(=O)n(Cc2ccccc2)c(=O)[nH]1
inactive: [2] 98 % of control | [3] 98 % of control | [4] 93 % of control

CCOC(=O)/C(C)=C\C1C(C)=CC(=O)CC1(C)C (centres undefined)
inactive: [2] 102 % of control | [3] 95 % of control | [4] 100 % of control

CC(=O)NNC(=O)c1ccncc1
inactive: dose: 100.0 mg/kg/injection, schedule: Q01DX001 (ip), vehicle: water 93 % of control | dose: 100.0 mg/kg/injection, schedule: Q01DX009 (ip), vehicle: water 101 % of control | dose: 200.0 mg/kg/injection, schedule: Q01DX001 (ip), vehicle: water 98 % of control | dose: 200.0 mg/kg/injection, schedule: Q01DX009 (ip), vehicle: water 106 % of control and 110 % of control | dose: 400.0 mg/kg/injection, schedule: Q01DX001 (ip), vehicle: water 102 % of control | dose: 600.0 mg/kg/injection, schedule: Q01DX009 (ip), vehicle: water 122 % of control | dose: 800.0 mg/kg/injection, schedule: Q01DX009 (ip), vehicle: water 97 % of control

CCOCCCSP(SCCCOCC)SCCCOCC
inactive: dose: 100.0 mg/kg/injection, schedule: Q01DX009 (ip), vehicle: saline 101 % of control | dose: 200.0 mg/kg/injection, schedule: Q01DX009 (ip), vehicle: saline 102 % of control | dose: 400.0 mg/kg/injection, schedule: Q01DX009 (ip), vehicle: saline 104 % of control

CS(=O)(=O)c1nnc(-c2ccccc2)s1
inactive: dose: 50.0 mg/kg/injection, schedule: Q01DX009 (ip), vehicle: saline with Tween-80 93 % of control | [9] 97 % of control | [5] 96 % of control and 90 % of control | [10] 94 % of control | [6] 93 % of control and 90 % of control

COc1ccc2c(c1)C(CO)c1ccc(Cl)cc1N2 (centres undefined)
inactive: dose: 100.0 mg/kg/injection, schedule: Q04DX003 (ip), vehicle: saline with Tween-80 93 % of control | dose: 200.0 mg/kg/injection, schedule: Q04DX003 (ip), vehicle: saline with Tween-80 96 % of control | dose: 400.0 mg/kg/injection, schedule: Q04DX003 (ip), vehicle: saline with Tween-80 94 % of control

— PubChem BioAssay AID248 (DTP/NCI, 2004)
